From ChEMBL document CHEMBL5252666, “Discovery of CVN636: A Highly Potent, Selective, and CNS Penetrant mGluR7 Allosteric Agonist” (ACS Med Chem Lett, 2023)
The source made the active and inactive calls. The calls are words filed in the database; no cut-off is given here.

Columns and labels:
[1] = target: T1, Metabotropic glutamate receptor 7 (Homo sapiens, UniProt Q14831); assay: (§1) Agonist activity at human mGluR7 expressed in CHO cells expressing CRE-Luc reporter gene assessed as reduction in forskolin-stimulated cAMP production preincubated for 15 mins followed by forskolin stimulation and measured after 5 hrs by luminescence based Steady glo assay; type: cell-based
T1 sequence (Q14831 whole entry): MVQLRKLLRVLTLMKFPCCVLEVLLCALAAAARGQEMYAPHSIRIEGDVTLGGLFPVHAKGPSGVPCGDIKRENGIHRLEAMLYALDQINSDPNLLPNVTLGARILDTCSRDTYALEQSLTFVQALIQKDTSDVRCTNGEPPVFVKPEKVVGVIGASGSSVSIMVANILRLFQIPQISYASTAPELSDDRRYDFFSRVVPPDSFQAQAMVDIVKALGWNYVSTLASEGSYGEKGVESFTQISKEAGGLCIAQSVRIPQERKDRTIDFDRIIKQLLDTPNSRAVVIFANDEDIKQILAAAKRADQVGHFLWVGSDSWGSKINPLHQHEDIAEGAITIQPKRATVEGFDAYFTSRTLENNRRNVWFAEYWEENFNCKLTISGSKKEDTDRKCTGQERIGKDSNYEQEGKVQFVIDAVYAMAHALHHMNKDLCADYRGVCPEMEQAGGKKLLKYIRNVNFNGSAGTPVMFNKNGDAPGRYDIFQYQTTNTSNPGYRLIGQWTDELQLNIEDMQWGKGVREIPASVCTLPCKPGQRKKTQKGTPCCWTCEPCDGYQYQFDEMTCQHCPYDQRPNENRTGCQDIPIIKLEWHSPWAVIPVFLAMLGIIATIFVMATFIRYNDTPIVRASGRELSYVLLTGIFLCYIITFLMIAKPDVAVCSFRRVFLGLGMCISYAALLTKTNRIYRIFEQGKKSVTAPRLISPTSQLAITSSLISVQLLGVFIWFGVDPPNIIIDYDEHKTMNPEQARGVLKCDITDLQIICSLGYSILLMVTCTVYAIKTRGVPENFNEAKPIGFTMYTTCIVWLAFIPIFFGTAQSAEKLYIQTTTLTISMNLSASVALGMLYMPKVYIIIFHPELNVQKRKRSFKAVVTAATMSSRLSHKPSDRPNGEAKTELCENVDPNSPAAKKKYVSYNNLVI

[2] = target: T1, Metabotropic glutamate receptor 7; assay: as §1, with “production by measuring maximum efficacy” for “production”, “assay relative to control” for “assay”; type: cell-based; conditions: filed as agonist, time 315.0 min
[3] = target: Sodium-dependent noradrenaline transporter (Homo sapiens) (UniProt P23975); assay: Binding affinity to human norepinephrine transporter at 10 uM
Sodium-dependent noradrenaline transporter (Homo sapiens), sequence (P23975 whole entry): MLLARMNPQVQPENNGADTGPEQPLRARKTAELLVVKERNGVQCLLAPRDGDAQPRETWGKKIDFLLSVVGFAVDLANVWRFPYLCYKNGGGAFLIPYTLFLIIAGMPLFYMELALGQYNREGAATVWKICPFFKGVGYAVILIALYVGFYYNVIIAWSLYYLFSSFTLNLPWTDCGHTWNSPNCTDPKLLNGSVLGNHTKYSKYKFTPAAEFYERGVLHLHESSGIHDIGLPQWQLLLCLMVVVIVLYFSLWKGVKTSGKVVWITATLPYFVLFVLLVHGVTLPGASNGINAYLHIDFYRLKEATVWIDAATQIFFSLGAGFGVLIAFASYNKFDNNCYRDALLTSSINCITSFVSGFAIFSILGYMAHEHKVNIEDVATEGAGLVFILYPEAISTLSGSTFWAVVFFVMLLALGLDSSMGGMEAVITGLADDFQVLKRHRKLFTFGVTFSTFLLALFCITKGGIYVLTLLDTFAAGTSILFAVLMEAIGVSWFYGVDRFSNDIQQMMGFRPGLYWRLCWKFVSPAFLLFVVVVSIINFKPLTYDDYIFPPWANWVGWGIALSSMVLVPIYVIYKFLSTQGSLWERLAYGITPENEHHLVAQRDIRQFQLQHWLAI

[4] = target: Histamine H1 receptor (Homo sapiens) (UniProt P35367); assay: Binding affinity to human H1 receptor at 10 uM
Histamine H1 receptor (Homo sapiens), sequence (P35367 whole entry): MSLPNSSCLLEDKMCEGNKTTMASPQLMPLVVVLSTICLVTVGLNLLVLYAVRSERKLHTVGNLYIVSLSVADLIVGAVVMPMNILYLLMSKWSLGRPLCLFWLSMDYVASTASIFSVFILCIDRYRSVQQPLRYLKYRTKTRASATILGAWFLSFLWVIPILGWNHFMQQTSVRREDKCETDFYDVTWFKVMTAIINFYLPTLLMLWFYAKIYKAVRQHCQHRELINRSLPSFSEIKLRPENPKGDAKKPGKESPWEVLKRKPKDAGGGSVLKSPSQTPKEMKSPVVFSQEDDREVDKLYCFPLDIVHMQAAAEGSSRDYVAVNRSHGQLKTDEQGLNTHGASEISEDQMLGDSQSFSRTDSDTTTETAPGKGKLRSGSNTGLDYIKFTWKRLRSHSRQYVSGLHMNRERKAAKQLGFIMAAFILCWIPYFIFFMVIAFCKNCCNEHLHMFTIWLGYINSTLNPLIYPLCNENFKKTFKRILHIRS

[5] = target: Adrenergic receptor alpha-1 (Rattus norvegicus) (UniProt P15823+P23944+P43140); assay: Binding affinity to rat alpha 1 adrenergic receptor at 10 uM; type: protein assay
[6] = target: T1, Metabotropic glutamate receptor 7; assay: Agonist activity at human mGluR7 expressed in CHO cells assessed as change in extracellular impedance incubated for 40 mins by CellKey impedance assay; type: cell-based; conditions: filed as agonist
[7] = target: T1, Metabotropic glutamate receptor 7; assay: Desensitization at human mGluR7 expressed in CHO cells assessed as reduction in tool agonist response at 10 uM preincubated for 1 hrs followed by compound replacement with assay buffer and measured 1 hrs after tool agonist addition by CellKey impedance assay relative to control; type: cell-based; parameters: scale not given: the % may be the effect or the level left
[8] = target: T1, Metabotropic glutamate receptor 7; assay: Agonist activity at human mGluR7b expressed in CHO cells assessed as inhibition of forskolin-stimulated cAMP accumulation; type: cell-based
[9] = target: T1, Metabotropic glutamate receptor 7; assay: Allosteric agonist activity at mGluR7 (unknown origin) assessed as reduction in forskolin-induced cAMP production by measuring fold change in EC50 preincubated for 15 mins in the presence of LY341495 followed by forskolin stimulation and measured after 5 hrs by luminescence based steady glo assay; conditions: filed as agonist, time 315.0 min
[10] = target: T1, Metabotropic glutamate receptor 7; assay: (§2) Positive allosteric modulation of mGluR7 (unknown origin) assessed as change in forskolin-induced cAMP production by measuring reduction in maximum response preincubated with compound for 15 mins in the presence of LY341495 followed by forskolin stimulation and measured after 5 hrs by luminescence based steady glo assay; parameters: scale not given: the % may be the effect or the level left; conditions: filed as positive allosteric modulator, time 315.0 min
[11] = target: T1, Metabotropic glutamate receptor 7; assay: as §2, with “fold change” for “reduction”, “EC50 shift” for “maximum response”; conditions: filed as positive allosteric modulator, time 315.0 min
[12] = Stability in cryopreserved rat hepatocytes assessed as clearance measured for 120 mins by LC-MS/MS analysis; type: ADME, cell-based, Hepatocyte; conditions: read-out: CLH
[13] = Unbound fraction in rat plasma incubated for 6 hrs by LC-MS/MS based rapid equilibrium dialysis; type: ADME, cell-free
[14] = Unbound fraction in rat brain incubated for 6 hrs by LC-MS/MS based rapid equilibrium dialysis; type: ADME, tissue-based
[15] = Apparent permeability from apical to basolateral side in MDCK-MDR1 cells; type: ADME, cell-based, Canis lupus familiaris; conditions: dog
[16] = Efflux ratio of apparent permeability in MDCK-MDR1 cells; type: ADME, cell-based, Canis lupus familiaris; conditions: dog
[17] = Volume of distribution at steady state in Sprague-Dawley rat at 0.5 mg/kg, iv measured after 24 hrs by LC-MS/MS analysis; type: ADME, organism-based; conditions: in vivo
[18] = Oral bioavailability in Sprague-Dawley rat at 3 mg/kg measured after 24 hrs by LC-MS/MS analysis; type: ADME, organism-based; conditions: in vivo
[19] = Cmax in Sprague-Dawley rat at 3 mg/kg, po measured after 24 hrs by LC-MS/MS analysis; type: ADME, organism-based; parameters: dose 3 mg/kg, time 24 hrs, route po; conditions: in vivo
[20] = Tmax in Sprague-Dawley rat at 3 mg/kg, po measured after 24 hrs by LC-MS/MS analysis; type: ADME, organism-based; conditions: in vivo
[21] = Half-life in Sprague-Dawley rat at 3 mg/kg, po measured after 24 hrs by LC-MS/MS analysis; type: ADME, organism-based; conditions: in vivo
[22] = AUC(0 to infinity) in Sprague-Dawley rat at 3 mg/kg, po measured after 24 hrs by LC-MS/MS analysis; type: ADME, organism-based; parameters: time 24 hrs, dose 3 mg/kg, route po; conditions: in vivo
[23] = Ratio of drug concentration in Sprague-Dawley rat brain to plasma at 3 mg/kg, po measured after 4 hrs by LC-MS/MS analysis; type: ADME, organism-based
[24] = Ratio of unbound brain to plasma concentration in Sprague-Dawley rat at 3 mg/kg, po measured after 4 hrs by LC-MS/MS analysis; type: ADME, organism-based
[25] = target: Metabotropic glutamate receptor 4 (Homo sapiens) (UniProt Q14833); assay: Agonist activity at human mGluR4 expressed in CHO cells assessed as reduction in forskolin-induced cAMP production incubated for 1 hrs by HTRF analysis; type: cell-based
Metabotropic glutamate receptor 4 (Homo sapiens), sequence (Q14833 whole entry): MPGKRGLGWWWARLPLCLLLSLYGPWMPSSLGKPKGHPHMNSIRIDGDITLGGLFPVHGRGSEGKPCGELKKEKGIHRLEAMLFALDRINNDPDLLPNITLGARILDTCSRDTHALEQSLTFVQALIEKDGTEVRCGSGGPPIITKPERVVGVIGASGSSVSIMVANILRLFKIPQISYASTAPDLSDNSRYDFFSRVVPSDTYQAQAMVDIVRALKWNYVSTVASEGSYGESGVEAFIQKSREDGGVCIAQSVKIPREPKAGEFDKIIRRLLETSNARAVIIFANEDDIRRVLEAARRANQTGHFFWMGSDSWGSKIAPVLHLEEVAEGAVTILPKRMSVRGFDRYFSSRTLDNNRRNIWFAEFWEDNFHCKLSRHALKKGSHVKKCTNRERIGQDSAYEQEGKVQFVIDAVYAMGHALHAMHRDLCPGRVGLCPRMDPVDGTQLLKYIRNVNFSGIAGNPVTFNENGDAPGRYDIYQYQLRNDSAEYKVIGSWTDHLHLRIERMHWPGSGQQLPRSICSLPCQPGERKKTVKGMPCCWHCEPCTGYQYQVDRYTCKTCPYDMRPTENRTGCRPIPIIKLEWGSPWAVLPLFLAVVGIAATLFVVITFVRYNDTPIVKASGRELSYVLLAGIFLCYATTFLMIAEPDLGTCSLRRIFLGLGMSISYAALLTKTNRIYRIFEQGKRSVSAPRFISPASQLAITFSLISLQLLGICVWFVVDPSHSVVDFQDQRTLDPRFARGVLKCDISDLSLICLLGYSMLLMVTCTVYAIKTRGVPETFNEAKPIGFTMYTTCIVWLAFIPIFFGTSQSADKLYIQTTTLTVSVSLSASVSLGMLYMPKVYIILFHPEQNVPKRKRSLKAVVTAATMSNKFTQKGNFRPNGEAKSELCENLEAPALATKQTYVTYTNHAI

[26] = target: Metabotropic glutamate receptor 2 (Homo sapiens) (UniProt Q14416); assay: Agonist activity at mGluR2 (unknown origin) at 1 to 10 uM by cAMP assay; conditions: dose 1-10 µM
[27] = target: Metabotropic glutamate receptor 6 (Homo sapiens) (UniProt O15303); assay: Agonist activity at mGluR6 (unknown origin) at 1 to 10 uM by cAMP assay; conditions: dose 1-10 µM
Metabotropic glutamate receptor 6 (Homo sapiens), sequence (O15303 whole entry): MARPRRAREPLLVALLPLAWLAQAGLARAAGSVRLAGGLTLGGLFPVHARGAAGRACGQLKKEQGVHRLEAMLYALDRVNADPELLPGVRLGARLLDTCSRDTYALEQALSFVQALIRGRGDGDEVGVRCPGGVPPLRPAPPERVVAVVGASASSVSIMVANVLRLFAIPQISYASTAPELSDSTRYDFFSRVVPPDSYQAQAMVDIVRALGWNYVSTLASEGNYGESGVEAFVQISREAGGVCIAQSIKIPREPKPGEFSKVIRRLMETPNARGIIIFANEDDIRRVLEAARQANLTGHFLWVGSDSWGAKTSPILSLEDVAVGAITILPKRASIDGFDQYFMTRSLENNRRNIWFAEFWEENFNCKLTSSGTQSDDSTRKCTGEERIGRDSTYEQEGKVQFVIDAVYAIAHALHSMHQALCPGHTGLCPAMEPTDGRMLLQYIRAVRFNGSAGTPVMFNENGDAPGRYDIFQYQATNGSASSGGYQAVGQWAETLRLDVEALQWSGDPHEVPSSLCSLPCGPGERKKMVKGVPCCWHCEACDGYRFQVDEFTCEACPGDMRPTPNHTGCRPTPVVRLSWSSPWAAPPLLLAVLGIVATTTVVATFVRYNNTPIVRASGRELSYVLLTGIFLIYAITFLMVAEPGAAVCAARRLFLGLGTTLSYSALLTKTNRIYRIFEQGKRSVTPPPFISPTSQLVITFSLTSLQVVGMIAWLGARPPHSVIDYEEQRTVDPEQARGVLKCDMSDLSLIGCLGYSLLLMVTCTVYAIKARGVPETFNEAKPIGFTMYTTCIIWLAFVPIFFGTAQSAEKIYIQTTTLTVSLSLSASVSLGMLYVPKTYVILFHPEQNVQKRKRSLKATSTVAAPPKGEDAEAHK

[28] = target: Metabotropic glutamate receptor 8 (Homo sapiens) (UniProt O00222); assay: Agonist activity at human mGluR8 expressed in CHO cells assessed as reduction in forskolin-induced cAMP production incubated for 1 hrs by HTRF analysis; type: cell-based
Metabotropic glutamate receptor 8 (Homo sapiens), sequence (O00222 whole entry): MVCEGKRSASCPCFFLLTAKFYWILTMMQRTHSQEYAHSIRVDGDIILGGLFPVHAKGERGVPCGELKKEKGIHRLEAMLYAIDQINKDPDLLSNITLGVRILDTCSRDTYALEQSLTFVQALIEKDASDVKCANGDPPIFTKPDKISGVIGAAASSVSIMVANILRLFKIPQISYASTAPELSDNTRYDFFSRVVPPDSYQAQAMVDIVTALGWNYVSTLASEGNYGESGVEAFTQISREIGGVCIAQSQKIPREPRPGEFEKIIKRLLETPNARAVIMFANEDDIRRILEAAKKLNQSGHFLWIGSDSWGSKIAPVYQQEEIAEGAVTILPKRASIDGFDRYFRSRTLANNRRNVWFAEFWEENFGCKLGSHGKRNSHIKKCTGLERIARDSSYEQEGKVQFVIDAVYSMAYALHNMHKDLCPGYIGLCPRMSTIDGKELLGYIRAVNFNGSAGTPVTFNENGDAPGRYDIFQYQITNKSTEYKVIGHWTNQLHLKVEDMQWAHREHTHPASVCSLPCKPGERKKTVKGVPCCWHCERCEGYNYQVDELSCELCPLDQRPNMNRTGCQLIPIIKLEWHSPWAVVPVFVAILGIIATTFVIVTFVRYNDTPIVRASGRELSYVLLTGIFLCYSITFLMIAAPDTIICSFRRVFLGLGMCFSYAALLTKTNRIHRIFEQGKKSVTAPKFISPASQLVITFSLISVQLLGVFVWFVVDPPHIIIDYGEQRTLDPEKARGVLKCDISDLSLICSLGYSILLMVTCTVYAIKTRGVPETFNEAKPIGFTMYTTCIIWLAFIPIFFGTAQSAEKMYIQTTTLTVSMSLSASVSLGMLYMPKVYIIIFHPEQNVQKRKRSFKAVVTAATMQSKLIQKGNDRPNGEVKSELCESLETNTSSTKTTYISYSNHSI

[29] = target: Metabotropic glutamate receptor 1 (Homo sapiens) (UniProt Q13255); assay: Agonist activity at mGluR1 (unknown origin) at 1 to 10 uM by Galphaqi5 calcium flux assay; conditions: dose 1-10 µM
[30] = target: Metabotropic glutamate receptor 3 (Homo sapiens) (UniProt Q14832); assay: Agonist activity at mGluR3 (unknown origin) at 1 to 10 uM by Galphaqi5 calcium flux assay; conditions: dose 1-10 µM
[31] = target: Metabotropic glutamate receptor 5 (Homo sapiens) (UniProt P41594); assay: Agonist activity at mGluR5 (unknown origin) at 1 to 10 uM by Galphaqi5 calcium flux assay; conditions: dose 1-10 µM
[32] = target: Metabotropic glutamate receptor 7 (Mus musculus, UniProt Q68ED2); assay: Agonist activity at mouse mGluR7 expressed in CHO cells expressing CRE-Luc reporter gene assessed as reduction in forskolin-stimulated cAMP production preincubated for 15 mins followed by forskolin stimulation and measured after 5 hrs by luminescence based Steady glo assay; type: cell-based
Metabotropic glutamate receptor 7 (Mus musculus, UniProt Q68ED2), sequence (Q68ED2 whole entry): as the sequence (Q14831 whole entry) above, with R5G, A27V, S488T, A520P, D578N counted along it

[33] = target: T1, Metabotropic glutamate receptor 7; assay: Desensitization at human mGluR7 expressed in CHO cells assessed as reduction in tool agonist response at EC80 concentration preincubated for 1 hrs followed by compound replacement with assay buffer and measured 1 hrs after tool agonist addition by CellKey impedance assay relative to control; type: cell-based
Rattus norvegicus [34] = assay: In vivo agonist activity in po dosed alcohol preferring Marchigian-Sardinian rat assessed as reduction in alcohol self-administration measured after 1 hrs; type: functional, organism-based; conditions: dose 0.3-3 mg/kg
Rattus norvegicus [35] = assay: In vivo agonist activity in alcohol preferring Marchigian-Sardinian rat assessed as reduction in alcohol self-administration at 3 mg/kg, po administered for 1 hrs relative to control; type: functional; parameters: scale not given: the % may be the effect or the level left
Rattus norvegicus [36] = assay: In vivo agonist activity in alcohol preferring Marchigian-Sardinian rat assessed as reduction in alcohol self-administration by measuring number of response at 3 mg/kg, po administered for 1 hrs; type: functional
[37] = target: T1, Metabotropic glutamate receptor 7; assay: Competitive binding affinity to mGluR7 (unknown origin) assessed as rightward shift in forskolin-induced cAMP production level by measuring fold change preincubated for 15 mins in the presence of LY341495 followed by forskolin stimulation and measured after 5 hrs by luminescence based steady glo assay; conditions: filed as agonist, time 315.0 min
[38] = Stability in human liver microsomes assessed as intrinsic clearance preincubated for 60 mins followed by NADPH addition and measured upto 60 mins by LC-MS/MS analysis; type: ADME, Microsome; conditions: time < 120 min, read-out: CLH
[39] = Stability in rat liver microsomes assessed as intrinsic clearance preincubated for 60 mins followed by NADPH addition and measured upto 60 mins by LC-MS/MS analysis; type: ADME, Microsome; conditions: time < 120 min, read-out: CLH

## C[C@H](C(=O)NC1Cc2ccccc2C1)c1ccc(F)cc1
[1]
  EC50: 55 nM
[2]
  Emax: 96%

## c1ccc(C(NCCNC(c2ccccc2)c2ccccc2)c2ccccc2)cc1
[3]
  Activity: Active
[4]
  Activity: Active
[5]
  Activity: Active
[6]
  Activity: Active
[7]
  Activity: 74%
[8]
  EC50: 64 nM
[9]
  fold change (FC): 2

## CNC[C@@H](OCC(=O)N1CCCc2ccccc21)c1ccccc1
[8]
  EC50: 110 nM

## O=C(Nc1ccc(Oc2ccc(Cl)cn2)c(Cl)c1)c1ccccn1
[10]
  Activity: 43%
[11]
  fold change (FC): 2

## C[C@H](C(=O)N[C@H]1COc2ccccc2[C@@H]1S(C)(=O)=O)c1ccc(F)cc1
[1]
  EC50: 7 nM
[2]
  Emax: 97%
[12]
  CLint scaled: 145 mL/min/kg
[13]
  Fu: 0.283
[14]
  Fu: 0.227
[15]
  Papp: 16.2 ×10⁻⁶ cm/s
[16]
  Ratio: 0.5
[17]
  Vdss: 1.49 L/kg
[18]
  F: 24%
[19]
  Cmax: 1240 nM
[20]
  Tmax: 0.67 h
[21]
  t1/2: 2.25 h
[22]
  AUC: 1404 ng·h/mL
[23]
  BPR: 0.56
[24]
  K(p,uu,brain): 0.45
[25]
  Activity: inactive
[26]
  Activity: inactive
[27]
  Activity: inactive
[28]
  Activity: inactive
[29]
  Activity: inactive
[30]
  Activity: inactive
[31]
  Activity: inactive
[32]
  EC50: 2 nM
[6]
  Activity: Active
[33]
  Activity: inactive
[9]
  fold change (FC): 2
Rattus norvegicus [34]
  Activity: Dose-Dependent Effect
Rattus norvegicus [35]
  Activity: 25%
Rattus norvegicus [36]
  Activity: 40.9

## N[C@@H](CCC(=O)O)C(=O)O
[6]
  Activity: Active

## N[C@@H](CCP(=O)(O)O)C(=O)O
[37]
  fold change (FC): 13

## C[C@H](C(=O)NC1Cc2ccccc2C1)c1ccccc1
[1]
  EC50: 113 nM
[2]
  Emax: 95%

## C[C@@H](C(=O)NC1Cc2ccccc2C1)c1ccccc1
[1]
  EC50: 1340 nM
[2]
  Emax: 69%

## C[C@H](C(=O)N[C@@H]1CCc2ccccc2[C@H]1S(C)(=O)=O)c1ccc(F)cc1
[2]
  Emax: 95%
[38]
  microsomal CLint: 2 µL/min/mg
[39]
  microsomal CLint: 55 µL/min/mg

## O=C(Cc1ccc(Cl)cc1)NC1Cc2ccccc2C1
[1]
  EC50: 156 nM
[2]
  Emax: 71%
